Earlier results on five compounds are cited in patent publication US20080317843A1, “NANOPARTICULATE FORMULATIONS OF MODAFINIL” (Elan Corporation plc, priority 2006, published 2008).

For series [1] the following is noted: for share of trough concentration (Cminss) of circulating modafinil: after once daily dosing.
For another series, the target named is CYP2C19 (Homo sapiens, UniProt P33261).
The test system of series [2] is receptors for norepinephrine. To be noted: pharmacologically relevant concentrations.
The subject of the next series is receptors for serotonin. The following applies: pharmacologically relevant concentrations.
A further series has as its system receptors for GABA. The following applies: pharmacologically relevant concentrations.
Another series relates to receptors for adenosine. The following applies: pharmacologically relevant concentrations.
In series [3] the target is receptors for histamine-3 (Homo sapiens, UniProt Q9Y5N1). To be noted: pharmacologically relevant concentrations.
Chain of receptors for histamine-3 (Q9Y5N1 whole entry): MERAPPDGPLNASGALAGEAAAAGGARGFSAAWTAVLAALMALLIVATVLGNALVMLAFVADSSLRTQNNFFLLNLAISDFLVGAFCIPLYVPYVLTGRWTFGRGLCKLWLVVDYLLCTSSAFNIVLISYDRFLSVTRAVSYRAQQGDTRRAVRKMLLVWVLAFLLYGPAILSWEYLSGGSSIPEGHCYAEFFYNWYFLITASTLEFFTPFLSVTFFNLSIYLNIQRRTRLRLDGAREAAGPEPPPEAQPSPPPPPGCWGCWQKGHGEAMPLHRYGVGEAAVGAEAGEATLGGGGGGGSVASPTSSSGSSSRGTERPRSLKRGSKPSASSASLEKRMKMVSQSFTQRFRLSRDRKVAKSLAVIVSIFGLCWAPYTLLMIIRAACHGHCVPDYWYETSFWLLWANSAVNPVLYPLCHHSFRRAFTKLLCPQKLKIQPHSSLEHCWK
The test system of a further series is receptors for melatonin. The following applies: pharmacologically relevant concentrations.
The test system of series [4] is receptors for benzodiazepines. The following applies: pharmacologically relevant concentrations.
A further series concerns the target T1, MAO-B (Homo sapiens, UniProt P27338).
T1 sequence (P27338 1-520): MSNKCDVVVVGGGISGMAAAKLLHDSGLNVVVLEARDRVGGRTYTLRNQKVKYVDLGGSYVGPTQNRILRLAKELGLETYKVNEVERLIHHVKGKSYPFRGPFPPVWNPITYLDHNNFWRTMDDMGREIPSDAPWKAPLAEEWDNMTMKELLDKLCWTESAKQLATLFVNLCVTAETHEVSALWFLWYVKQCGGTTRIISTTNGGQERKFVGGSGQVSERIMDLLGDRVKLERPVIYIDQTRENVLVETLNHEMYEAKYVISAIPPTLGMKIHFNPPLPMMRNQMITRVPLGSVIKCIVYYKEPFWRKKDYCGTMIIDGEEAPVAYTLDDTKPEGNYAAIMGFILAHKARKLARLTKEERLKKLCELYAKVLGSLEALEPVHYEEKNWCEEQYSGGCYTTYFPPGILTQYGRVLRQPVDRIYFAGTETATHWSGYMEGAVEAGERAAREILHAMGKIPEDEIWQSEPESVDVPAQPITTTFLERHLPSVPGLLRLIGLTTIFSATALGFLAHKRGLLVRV

The subject of a further series is CYP3A4. The following applies: chronic administration of modafinil 400 mg; substrates given orally.

Chain of CYP2C19 (P33261 whole entry): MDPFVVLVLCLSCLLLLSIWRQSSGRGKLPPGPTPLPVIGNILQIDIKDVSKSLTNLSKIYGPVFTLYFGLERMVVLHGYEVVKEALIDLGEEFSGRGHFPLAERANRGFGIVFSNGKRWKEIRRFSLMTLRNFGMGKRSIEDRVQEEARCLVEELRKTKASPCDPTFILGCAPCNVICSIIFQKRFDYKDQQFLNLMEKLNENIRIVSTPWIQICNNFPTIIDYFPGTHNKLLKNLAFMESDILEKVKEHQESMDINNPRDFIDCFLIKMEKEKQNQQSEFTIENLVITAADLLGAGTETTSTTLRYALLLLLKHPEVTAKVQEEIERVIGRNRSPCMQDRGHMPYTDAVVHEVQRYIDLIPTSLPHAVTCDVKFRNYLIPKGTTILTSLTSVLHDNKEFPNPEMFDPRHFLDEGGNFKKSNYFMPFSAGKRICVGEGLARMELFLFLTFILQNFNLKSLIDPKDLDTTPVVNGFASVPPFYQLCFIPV

`O=C(C[S+]([O-])C(c1ccccc1)c1ccccc1)NO` (centres unmarked) [Adrafinil, 2-(diphenylmethyl) sulfinyl acetohydroxamic acid]: the solubility in acetone entry is “sparingly to slightly soluble”, the solubility in cyclohexane entry is on record as “practically insoluble”, the solubility in methanol result is listed as “sparingly to slightly soluble” and the solubility in water result is reported as “practically insoluble”.
As to `NC(=O)C[S+]([O-])C(c1ccccc1)c1ccccc1` (single isomer, unassigned) [d-isomer], the “share of trough concentration (Cminss) of circulating modafinil” value in [1] is 10%.
With `NC(=O)CS(=O)(=O)C(c1ccccc1)c1ccccc1` [modafinil sulfone], at CYP2C19, the “inhibition of CYP2C19” value is on record as “reversible inhibitors”.
`NC(=O)C[S@@+]([O-])C(c1ccccc1)c1ccccc1` (single isomer, unassigned) [l-isomer]: the “share of trough concentration (Cminss) of circulating modafinil” value in [1] was 90%. Also, the “total exposure relative to the d-isomer” value in series [1] (at steady state) is given as “approximately three times”. In series [1] (humans), the “half-life relative to the d-isomer” value is recorded as “approximately three times”.
For the compound `NC(=O)C[S+]([O-])C(c1ccccc1)c1ccccc1` (centres unmarked) [modafinil, 2-[(diphenylmethyl)sulfinyl]acetamide], the solubility in acetone result is on record as “sparingly to slightly soluble”, the solubility in cyclohexane result is listed as “practically insoluble”, the solubility in methanol entry is “sparingly to slightly soluble” and the solubility in water result is reported as “practically insoluble”. Besides, the “binding to receptors for norepinephrine” value in series [2] is given as “does not bind”. For the same compound, the “binding to receptors for serotonin” value with receptors for serotonin is on record as “does not bind”. The “binding to receptors for GABA” value in the series with receptors for GABA is reported as “does not bind”. Further, in the series with receptors for adenosine, the “binding to receptors for adenosine” value was “does not bind”. Also, the “binding to receptors for histamine-3” value in series [3] is listed as “does not bind”. The “binding to receptors for melatonin” value in the series on receptors for melatonin is given as “does not bind”. In [4], the “binding to receptors for benzodiazepines” value was “does not bind”. Also, the “inhibition of the activity of MAO-B” value at MAO-B was “does not inhibit”. Besides, the “inhibition of the activities of phosphodiesterases II-V” value with phosphodiesterases II-V is “does not inhibit”. Besides, in [1] (after multiple doses), the effective elimination half-life entry is “about 15 hours”. Also, the “decrease in oral clearance (CL/F)” value in series [1] (single dose 200 mg, 12 subjects mean age 63 years vs matched younger subjects) is approximately 20%. Moreover, in series [1] (with food), the “delay of absorption and (tmax) if taken with food” value is listed as “delayed by approximately one hour”; the “effect of food on overall bioavailability” value is listed as “no effect”. The aqueous insolubility (aqueous) was less than 1 mg/mL. The “inhibition of CYP2C19” value at CYP2C19 is reported as “reversible inhibitors”. For the same compound, the “systemic exposure to two CYP3A4 substrates, ethinyl estradiol, and triazolam” value in the series on CYP3A4 was “decrease”.
